One data set deals with T1, bradykinin receptor (Cavia porcellus, UniProt O70526).
T1 construct: from tissue; host or cells: guinea pig terminal ileum, washed membrane homogenate
T1 sequence (O70526 1-372): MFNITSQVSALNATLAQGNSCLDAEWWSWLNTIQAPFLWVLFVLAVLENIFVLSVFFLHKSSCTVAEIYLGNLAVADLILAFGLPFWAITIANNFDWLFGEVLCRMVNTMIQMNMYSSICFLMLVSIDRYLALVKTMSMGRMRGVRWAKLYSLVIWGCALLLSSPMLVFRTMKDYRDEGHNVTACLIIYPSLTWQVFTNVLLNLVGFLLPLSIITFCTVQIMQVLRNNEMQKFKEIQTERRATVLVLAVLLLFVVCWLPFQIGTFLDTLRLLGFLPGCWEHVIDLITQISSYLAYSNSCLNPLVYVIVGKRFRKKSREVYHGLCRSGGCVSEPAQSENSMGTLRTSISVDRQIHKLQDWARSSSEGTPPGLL
As to the kind of experiment: 3H-Bradykinin binding assay, guinea pig terminal ileum homogenate. The following applies: competition with 3H-bradykinin (~0.3 nM), guinea pig terminal ileum membranes, 90 min ambient temperature. As for the experimental part: Bradykinin Binding Procedure
Binding of ^3H-Bradykinin was preformed using the method of D. C. Manning, R. Vavrek, J. M. Stewart, and S. H. Synder, J. Pharmacol. Exp. Ther., (1986), 237, 504. The tissues used in the binding assay were terminal ileum from male Hartley guinea pigs (150-350 g). After dissection, tissues were placed in 20 vol of ice-cold buffer A (25 mM TES containing 0.2 g/L of 1,10-phenanthroline adjusted to pH 6.8 with ammonium hydroxide) and homogenized using a Ploytron Tissumizer at setting 6 for 15 sec. The homogenate was centrifuged at 50,000 x g for 10 min, the supernatant discarded, and the pellet resuspended in ice-cold buffer A by homogenization with the Polytron. Each tissue was homogenized and centrifuged three times. The final pellet was resuspended in buffer A containing bovine serum albumin (1 g/L) and Bacitracin (0.14 g/L) to a final volume of 170 mL/g of the original tissue weight. The binding assay consisted of 1 mL in 12×75 mm polypropylene tubes: 50 uL ^3H-bradykinin (20,000 dpm, ˜0.3 nM in the final assay volume), […] displacing drug in buffer A, and 750 uL tissue homogenate. Each tray contained tubes, to which no drug was added to measure maximum binding and tubes to which bradykinin (1 uM final concentration) had been added, to measure […]. Specific binding accounted for 96-98% total binding. Tubes were incubated for 90 min at ambient temperature. The assays were terminated by filtration over Whatman GF/B glass fiber filters that had been pretreated for 2 hours with polyethyleneimine (2 g/L) using a Brandel Tissue Harvester, followed by washing with 4×1 mL aliquots of ice-cold 50 mM Tris, pH 7.4. Filters were dissolved in Ready-Safe Fluor (Beckman) for at least 90 min before quantitation by liquid scintillation spectrometry. Kd values were determined using saturation binding and analysis by EBDA (G. A. MacPherson, J. Pharmacol. Methods, (1985), 213), followed by LIGAND (P. J. Munson, D. Rodbard, Anal. Biochem., (1980), 220). Ki values were determined using competitive analysis followed by EBDA and LIGAND. The following test results were obtained.

Data set [1] has as its target T2, bradykinin receptors on intestinal (ileal longitudinal) smooth muscle (Cavia porcellus, UniProt O70526).
T2 construct: The longitudinal muscle was separated from the underlying circular muscle; from tissue; host or cells: guinea pig ileal longitudinal smooth muscle strips
T2 sequence (O70526 1-372): T1 sequence (O70526 1-372)
In words: Bradykinin antagonist activity on guinea pig ileal longitudinal smooth muscle (Schild analysis). Type of data set: cell-based. Conditions: antagonism of bradykinin-induced contraction, 5 min antagonist exposure; for Kb: read-out: pA2 (converted). The procedure:
Determination of Bradykinin Antagonist Activity
Guinea pig intestine was removed and placed in a Petri dish containing Tyrodes solution and cut into 3-4 cm segments. The longitudinal muscle was separated from the underlying circular muscle using a cotton applicator (Paton and Zar, J. Physiol., (1968), 194:13. Muscle strips were connected to isometric force-displacement transducers (Grass or Gould) coupled to a physiograph and placed in tissue baths containing Tyrode's solution at 37° C. Each preparation was suspended under a resting tension of 2 g.
After equilibration of the tissues, appropriate volumes of bradykinin solutions were cumulatively added to the 10 mL tissue baths to increase the concentration of bradykinin in the bath step-by-step without washing out after each single dose. Higher concentrations were added only after the preceding contraction had reached a steady value. […] Antagonism of bradykinin responses in the presence of antagonist were determined by repeating the cumulative addition procedure for bradykinin after the tissue has been exposed to the antagonist for 5 minutes. Three or four different concentrations of antagonist are studied sequentially in the same preparations. Responses were expressed as a percentage of the maximum contraction elicited by bradykinin in the absence of antagonist. pA2 values were calculated by Schild analysis.

The conditions of data set [2]: cited from earlier work.
The conditions of data set [3]: anesthetized rat, intra-aortic vs intravenous administration; cited from earlier work.

“And” between values parts separate entries of the source, which are not always exact repeats. Equal entries are not always repeated. Residues, ends and D or L forms follow the SMILES beside them.

The term Ki denotes the dissociation constant of the complex between target and ligand, obtained from inhibition or displacement. Read a high Ki as weaker binding. Turning to `CO[C@@H]1C[C@H](C(=O)N2Cc3ccccc3C[C@H]2C(=O)N[C@@H](CCCNC(=N)N)C(=O)O)N(C(=O)[C@H](CO)NC(=O)[C@H](Cc2cccs2)NC(=O)CNC(=O)[C@@H]2C[C@@H](O)CN2C(=O)[C@@H]2CCCN2C(=O)[C@H](CCCNC(=N)N)NC(=O)[C@H](N)CCCNC(=N)N)C1` [D-Arg-Arg-Pro-4Hyp-Gly-Thi-Ser-(D-4-hydroxyproline cis methyl ether)-Tic-Arg], the Ki at bradykinin receptor was found to be 164 ± 20 nM. Besides, the Kb in data set [1] is 5750 nM and 6310 nM.

Regarding `CCCO[C@H]1C[C@H](C(=O)N2Cc3ccccc3C[C@H]2C(=O)N[C@@H](CCCNC(=N)N)C(=O)O)N(C(=O)[C@H](CO)NC(=O)[C@H](Cc2cccs2)NC(=O)CNC(=O)[C@@H]2C[C@@H](O)CN2C(=O)[C@@H]2CCCN2C(=O)[C@H](CCCNC(=N)N)NC(=O)[C@H](N)CCCNC(=N)N)C1` [D-Arg-Arg-Pro-4Hyp-Gly-Thi-Ser-(D-4-Hydroxyproline trans propyl ether)-Tic-Arg], the affinity on bradykinin receptor corresponds to a Ki of 0.59 nM. Further, in data set [1], the Kb was 24.5 nM. Usually pA2 stands for a measure of antagonist potency on a negative log scale. Molecule “D-Arg-Arg-Pro-4Hyp-Gly-Phe-Ser-D-Phe-Phe-Arg [reference compound]” displayed a pA2 in data set [1] of 5.9. Turning to `NC(N)=NCCC[C@H](NC(=O)[C@H](Cc1ccccc1)NC(=O)[C@@H]1CCCN1C(=O)[C@H](CO)NC(=O)[C@H](Cc1ccccc1)NC(=O)CNC(=O)[C@@H]1CCCN1C(=O)[C@@H]1CCCN1C(=O)[C@@H](N)CCCN=C(N)N)C(=O)O` [bradykinin, Arg Pro Pro Gly Phe Ser Pro Phe Arg] (H-RPPGFSPFR-OH), in data set [2], the “half life in the systemic circulation” value is on record as “less than 30 seconds”. Moreover, in data set [3], the “destruction on a single passage through the pulmonary circulation” value is given as 98-99%. At bradykinin receptor, `CO[C@H]1C[C@H](C(=O)N2Cc3ccccc3C[C@H]2C(=O)N[C@@H](CCCNC(=N)N)C(=O)O)N(C(=O)[C@H](CO)NC(=O)[C@H](Cc2cccs2)NC(=O)CNC(=O)[C@@H]2C[C@@H](O)CN2C(=O)[C@@H]2CCCN2C(=O)[C@H](CCCNC(=N)N)NC(=O)[C@H](N)CCCNC(=N)N)C1` [D-Arg-Arg-Pro-4Hyp-Gly-Thi-Ser-(D-4-hydroxyproline trans methyl ether)-Tic-Arg] displayed a Ki of 1.54 nM. Moreover, the Kb in data set [1] is 186 nM.

Turning to `CCCO[C@@H]1C[C@H](C(=O)N2Cc3ccccc3C[C@H]2C(=O)N[C@@H](CCCNC(=N)N)C(=O)O)N(C(=O)[C@H](CO)NC(=O)[C@H](Cc2cccs2)NC(=O)CNC(=O)[C@@H]2C[C@@H](O)CN2C(=O)[C@@H]2CCCN2C(=O)[C@H](CCCNC(=N)N)NC(=O)[C@H](N)CCCNC(=N)N)C1` [D-Arg-Arg-Pro-4Hyp-Gly-Thi-Ser-(D-4-hydroxyproline cis propyl ether)-Tic-Arg], at bradykinin receptor, the inhibition constant (Ki) amounted to 172 ± 45 nM. In addition, the Kb in data set [1] was 8910 nM and 3160 nM.

The values are drawn from patent US6770741B1, “Brandykinin antagonist peptides” (Scios Inc., priority 1991, dated 2004).
